Experimental data taken from patent US6380181B1, “Synthetic catechol derivatives, method for production and use thereof” (priority 1996, dated 2002).
Values after ≈ are worked out from the molar mass of the structure shown. Like-named read-outs stand apart in the source and are kept apart here.

Experiments:
Assay type in all cases: cell-based
E. coli ATCC 25922 = assay: Microdilution test (MIC); details: Escherichia coli, ATCC25922
Protocol: (§1) The minimum inhibiting concentrations (MICs) were determined for the following bacterial strains: Pseudomonas aeruginosa NCTC 10701, NCTC 10662, SG 137, ATCC 27853, KW 799 WT and KW 799/61, E. coli DCO, DC2 and ATCC 25922, Serratia marcescens SG 621; Salmonella gallinarum ATCC 9184, Klebsiella pneumoniae ATCC 10031 and SG 117.

[1] = test system: Klebsiella pneumoniae ATCC 10031; assay: Microdilution test (MIC); details: ATCC10031
Protocol: as §1

[2] = test system: Pseudomonas aeruginosa ATCC 27853; assay: Microdilution test (MIC); details: Pseudomonas aeruginosa, ATCC27853; P. aeruginosa ATCC 27853
Protocol: as §1

[3] = test system: Pseudomonas aeruginosa SG 137; assay: Microdilution test (MIC); details: Pseudomonas aeruginosa, SG137; P. aeruginosa SG 137
Protocol: as §1

[4] = test system: Stenotrophomonas maltophilia GN 12873; assay: Microdilution test (MIC); details: GN12873
E. coli AB 2847 = test system: E. coli AB 2847
Excerpt: (§2) In the indicator mutants, the synthesis of the respective siderophores, e.g. pyoverdin, pyochelin, enterobactin, aerobactin or yersiniabactin, or the biosynthesis of aromatic compounds, is blocked, or there is a lack of receptors for enterobactin, pyochelin or pyoverdin and for other important components for the bacterial transport of iron (e.g. the membrane proteins Cir, Fiu, FepA and TonB). Under conditions where there is a lack of iron, these mutants therefore cannot grow or can only grow to a very slight extent. In particular, the following indicator mutants were used: Pseudomonas aeruginosa PAO 6609, K 407, 690; E. coli AB 2847, Salmonella typhimurium enb-7, TA 270; Klebsiella pneumoniae KN 4401; Yersinia enterocolitica WAH; Proteus mirabilis 12 (wild); Proteus vulgaris 718 (wild) and Morganella morganii SBK3 (wild). […] The controls used were ferrioxamine E for the Pseudomonas strains, ferrioxamine G and enterobactin for the Salmonella strains, ferrichrome for the E. coli, Klebsiella and Y. enterocol. strains, and 3,4-dihydroxybenzylidene-2,4,6-trimethylaniline for Morganella morganii (see the above literature reference by R. Reissbrodt et al.).
(§3) The annotations + and (+) relate to non-specific promotion of growth.

[5] = test system: Klebsiella pneumoniae KN 4401; details: Klebsiella KN 4401
Excerpt: as §2, §3

[6] = test system: Morganella morganii SBK3 (wild)
Excerpt: as §2, §3

[7] = test system: Proteus mirabilis 12 (wild); details: Proteus mir. 12
Excerpt: as §2, §3

[8] = test system: Proteus vulgaris 718 (wild); details: Proteus vul. 718
Excerpt: as §2, §3

[9] = test system: Pseudomonas aeruginosa 690
Excerpt: as §2, §3

[10] = test system: Pseudomonas aeruginosa K 407; details: Pseudomonas aeruginosa K407
Excerpt: as §2, §3

[11] = test system: Pseudomonas aeruginosa PAO 6609
Excerpt: as §2, §3

[12] = test system: Salmonella typhimurium TA 2700
Excerpt: as §2, §3

[13] = test system: Salmonella typhimurium enb-7
Excerpt: as §2, §3

MIC (E. coli ATCC 25922)	MIC [1]	MIC [2]	MIC [3]	MIC [4]	SMILES	Growth areas of siderophore indicator strains (diameter) (E. coli AB 2847)	Growth areas of siderophore indicator strains (diameter) [5]	Growth areas of siderophore indicator strains (diameter) ([6]; M. morg. SBK 3)	Growth areas of siderophore indicator strains (diameter) [7]	Growth areas of siderophore indicator strains (diameter) [8]	Growth areas of siderophore indicator strains (diameter) [9]	Growth areas of siderophore indicator strains (diameter) [10]	Growth areas of siderophore indicator strains (diameter) [11]	Growth areas of siderophore indicator strains (diameter) [12]	Growth areas of siderophore indicator strains (diameter) [13]	Growth areas of siderophore indicator strains (diameter) [6]
< 0.05 µg/mL	< 0.05 µg/mL	0.2 µg/mL (≈ 0.522 µM)	0.1 µg/mL (≈ 0.261 µM)	> 100 µg/mL	C[C@@H](O)[C@H]1C(=O)N2C(C(=O)O)=C(S[C@@H]3CN[C@H](C(=O)N(C)C)C3)[C@H](C)[C@H]12 [Meropenem, reference compound]											
					COC(=O)Oc1ccc(C=Nc2cccc(C(=O)O)c2)cc1OC(=O)OC [Substance 1, 3-[3,4-di(Methoxycarbonyloxy)-benzylideneamino]-benzoic Acid]	0 mm	0 mm	35 mm	26 mm	35 mm	23 mm	16 mm	20 mm	0 mm	35 mm	
					COC(=O)Oc1ccc(C=Nc2cc(C(=O)O)ccc2O)cc1OC(=O)OC [Substance 2, 3-[3 ,4-di(Methoxycarbonyloxy)-benzylideneamino]4-hydroxybenzoic Acid]	0 mm	35 mm	20 mm	16 mm	25 mm	17 mm	18 mm	17 mm	0 mm	30 mm	
					COC(=O)Oc1ccc(C=Nc2cc(N=Cc3ccc(OC(=O)OC)c(OC(=O)OC)c3)cc(C(=O)O)c2)cc1OC(=O)OC [Substance 4, 3,5-Bis-[3,4-di(methoxycarbonyloxy)-benzylideneamino]-benzoic Acid]	18 mm	33 mm	27 mm	23 mm	24 mm	18 mm	18 mm	17 mm	0 mm	34 mm	
					CC(=O)Oc1ccc(C=Nc2ccc(C(=O)O)cc2)cc1OC(C)=O [Substance 6, 4-(3,4-Diacetoxybenzylideneamino)-benzoic Acid]	17 mm	25 mm	25 mm	23 mm	25 mm	19 mm	17 mm	14 mm	0 mm	34 mm	
					CC(=O)Oc1ccc(N=Cc2cc(C(=O)O)cc(O)c2O)cc1OC(C)=O [Substance 7, 3-[(3,4-Diacetoxyphenylimino)-methyl]-4,5-dihydroxybenzoic Acid]	0 mm	23 mm	22 mm	20 mm	22 mm	0 mm	0 mm	0 mm	0 mm	0 mm	
					O=C(O)c1cccc(N=Nc2ccc(O)c(O)c2)c1 [Substance 8, 3-(3,4-Dihydroxyphenylazo)benzoic Acid]	13 mm	20 mm	20 mm	20 mm	20 mm	0 mm	15 mm	13 mm	0 mm	0 mm	
					O=C(O)C(=NNC(=O)c1ccc(O)c(O)c1)c1ccccc1 [Substance 9, [(3,4-Dihydroxybenzoyl)-hydrazono]-phenylacetic Acid]	0 mm	27 mm		9 mm		10 mm			0 mm	0 mm	
					COC(=O)Oc1ccc(C(=O)NN=C(C(=O)O)c2ccccc2)cc1OC(=O)OC [Substance 12, {[3,4-di(Methoxycarbonyloxy)-benzoyl]-hydrazono}-phenylacetic Acid]	14 mm	30 mm	15 mm	17 mm	20 mm	12 mm	0 mm	14 mm	0 mm	0 mm	
					CC(=O)Oc1cccc(C(=O)NCCCC[C@H](NC(=O)c2cccc(OC(C)=O)c2OC(C)=O)C(=O)O)c1OC(C)=O [Substance 25, 1L-2,6-Bis-(2,3-diacetoxybenzoylamino)-hexanoic Acid]	30 mm							18 mm		28 mm	38 mm
					CC(=O)Oc1cccc(C(=O)N2COC[C@H]2C(=O)O)c1OC(C)=O [Substance 26, (S)-3-(2,3-diacetoxybenzoyl)-oxazolidine-4-carboxylic Acid]	14 mm		10 mm					0 mm		32 mm	
